Experimental data: PubChem BioAssay AID1648 (Sanford-Burnham Center for Chemical Genomics, 2009)
Activity calls are given as the source filed them. No rule for the calls is given here.

molecular target: Serine/threonine-protein kinase mTOR (Homo sapiens) (UniProt P42345); test: binders of mTOR FRB domain, biophysical, NMR (AID 1648); details: NMR binding to FRB domain, chemical shift
Sequence (P42345 2015-2114): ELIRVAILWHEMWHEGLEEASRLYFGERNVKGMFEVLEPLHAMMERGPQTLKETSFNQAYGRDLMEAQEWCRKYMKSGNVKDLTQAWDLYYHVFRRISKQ

SMILES	Kd
CC(=O)Oc1c2c(c3c(c1CC=C(C)C)O[C@]14C(=C[C@@H]5CC1C(C)(C)OC4(C/C=C(\C)C(=O)O)C5=O)C3=O)OC(C)(CCC=C(C)C)C=C2 (some centres undefined)	> 4 mM (inactive)
O=C(c1ccccc1)N1CCN(c2ccccc2F)CC1	> 4 mM (inactive)
NCCN=C1NS(=O)(=O)c2ccccc21	> 4 mM (inactive)
Nc1c(F)c(F)nc(F)c1F	> 4 mM (inactive)
CC(=O)Oc1ccc2c(c1C(C)C)CCC1C(C)(C)CCC[C@]21C (some centres undefined)	> 4 mM (inactive)
COC1C(O)C(O)C(O)[C@@H](O)C1O (some centres undefined)	> 4 mM (inactive)
CNC(=S)Nc1ccc(OC)cc1C	> 4 mM (inactive)
CN(C)C(=O)c1ccccc1-c1ccccc1	> 4 mM (inactive)
O=C(CN1C(=O)CCC1=O)c1ccccc1	> 4 mM (inactive)
COc1ccc(C(=O)/C=C2\NC(=S)NC2=O)cc1	> 4 mM (inactive)
CCSc1nc2ccccc2[nH]1	> 4 mM (inactive)
C=C[C@@](C)(O)CCC1C(=C)C[C@H](OC(C)=O)C2C(C)(C)CCCC12C (some centres undefined)	> 4 mM (inactive)
CC(=O)OC1CC[C@@]2(C)C(CCC3C2CC[C@]2(C)C(C4=CC(=O)OC4)C(OC(C)=O)CC32O)C1 (some centres undefined)	> 4 mM (inactive)
Cc1nn(CC(=O)N2CCCCC2)c(=O)c2ccccc12	> 4 mM (inactive)
COc1ccc2c(c1)OCc1c-2oc2cc(OC)ccc12	> 4 mM (inactive)
Cc1ccc(C(=O)NC2=NCCS2)o1	> 4 mM (inactive)
O=C(O)Cc1n[nH]c(=O)c2ccccc12	> 4 mM (inactive)
CC(C)(C)c1cc(NC(=O)c2cccnc2)no1	> 4 mM (inactive)
Clc1ccccc1OCCn1ccnc1	> 4 mM (inactive)
CSc1cccc(NC(=O)c2c(Cl)cnn2C)c1	> 4 mM (inactive)

SMILES	Kd
Cn1c(SCC(N)=O)nc2c1c(=O)[nH]c(=O)n2C	> 4 mM (inactive)
CN1CCN(C(=O)c2ccco2)CC1	> 4 mM (inactive)
O=C(O)c1cc2ccccc2o1	> 4 mM (inactive)
Cc1cc(C)n(-c2nncn2N)n1	> 4 mM (inactive)
O=C(c1cc(Cl)cc(Cl)c1)N1CCOCC1	> 4 mM (inactive)
CC1=C(CCC(=O)O)c2cc3nc(cc4[nH]c(cc5[nH]c(cc1n2)c(C)c5C(C)O)c(C)c4C(C)O)C(C)=C3CCC(=O)O (centres undefined)	> 4 mM (inactive)
Cn1nccc1N	> 4 mM (inactive)
Cc1c(/C=N/O)cnn1C	> 4 mM (inactive)
O=C1C=C(O)c2ccccc2C1=O	> 4 mM (inactive)
CCCOn1nnnc1-c1ccccc1	> 4 mM (inactive)
O=C(O)CN1C(=O)c2cccc([N+](=O)[O-])c2C1=O	> 4 mM (inactive)
O=C(O)C1CSC(c2ccccc2)N1 (centres undefined)	> 4 mM (inactive)
O=S1(=O)NC(=NCc2ccco2)c2ccccc21	> 4 mM (inactive)
C/C=C1\[C@H]2C=C(C)C[C@]1(N)c1ccc(=O)[nH]c1C2	> 4 mM (inactive)
Cc1cc(=O)cc(C)n1-c1ccccc1N1CCOCC1	> 4 mM (inactive)
COc1ccc2c(c1)OC[C@@H](Cc1ccc(OC)c(OC)c1)[C@@H]2O	> 4 mM (inactive)
COc1ccc2c(c1)OC[C@@H](Cc1ccc(OC)c(OC)c1)[C@H]2O	> 4 mM (inactive)
CC(C)=NNC(=O)C(=O)Nc1ccc(F)cc1	> 4 mM (inactive)
Cc1cc(Cl)ccc1NC(=O)C(N)=O	> 4 mM (inactive)
CN1CCC(NC(=O)Cc2c(F)cccc2Cl)CC1	> 4 mM (inactive)

SMILES	Kd
O=C1Nc2ccc(S(=O)(=O)NCCO)c3cccc1c23	> 4 mM (inactive)
CNC(=O)C1COc2ccccc2O1 (centres undefined)	> 4 mM (inactive)
CC(=O)OCc1cc(=O)n(C)c(=O)n1C	> 4 mM (inactive)
C[C@H](CCC(=O)O)[C@H]1CCC2C3C(CC[C@@]21C)[C@@]1(C)CC[C@@H](O)C[C@H]1C[C@@H]3O (some centres undefined)	> 4 mM (inactive)
COc1c(C)c2c(c(O)c1C/C=C(\C)CCC(=O)O)C(=O)OC2	> 4 mM (inactive)
Cc1cc(N)n(-c2ccccc2)n1	> 4 mM (inactive)
Cc1cc(C)cc(C(=O)N2CCC(C(N)=O)CC2)c1	> 4 mM (inactive)
COC(=O)c1scc(S(C)(=O)=O)c1-n1cccc1	> 4 mM (inactive)
O=C(Nc1cccc(Cl)c1)c1ccncc1	> 4 mM (inactive)
Cc1cc(N)on1	> 4 mM (inactive)
Nc1nc2c3ccccc3nc(Cc3ccccc3)n2n1	> 4 mM (inactive)
CC(C)(O)P(C)(=O)c1ccccc1 (centres undefined)	> 4 mM (inactive)
Cc1cccc(C(C)C)c1NC(=O)c1cccnc1	> 4 mM (inactive)
O=C1NC(=S)N/C1=C/c1ccsc1	> 4 mM (inactive)
C[C@@H]1O[C@@H](O[C@H]2CC[C@]3(C=O)C4CC[C@]5(C)[C@@H](C6=CC(=O)OC6)CC[C@]5(O)C4CC[C@]3(O)C2)[C@H](O)[C@H](O)[C@H]1O (some centres undefined)	> 4 mM (inactive)
Cc1nn2c(=O)nc3sc4c(c3c2[nH]c1=O)CCCC4	> 4 mM (inactive)
NC(=O)c1oc2ccccc2c1N	> 4 mM (inactive)
O=C(O)C1CCN(C(=O)c2cccs2)CC1	> 4 mM (inactive)
COc1ccccc1NC(N)=S	> 4 mM (inactive)
